Source: patent publication EP4813991A1 (iLeadBMS Co., Ltd., priority 2023, dated 2025)
Like-named read-outs stand apart in the source and are kept apart here.

Columns and labels:
[1] = test system: MDA-MB-231 breast cancer cells; experiment: Proliferation inhibitory activity assay against MDA-MB-231 breast cancer cells; assay type: cell-based; conditions: Homo sapiens, 72 hours, CellTiter Glo, relative IC50
Outline: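 Cells grown in L-15 with 10% FBS at 37 °C, 0% CO2, then exposed next day to compounds at 9 concentrations (DMSO vehicle) for 72 h. Viability read by CellTiter Glo luminescence; relative IC50 from dose-response curve fit.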

CDK12 [2] = target: T1, CDK12 (Homo sapiens, UniProt Q9NYV4); experiment: Cellular CDK12 inhibitory activity assay (Ser2 phosphorylation of RNA polymerase II subunit B1 CTD in MDA-MB-231 cells); assay type: cell-based; design: using MDA-MB-231 breast cancer cells; endogenous in cells; host or cells: MDA-MB-231; conditions: MDA-MB-231 cells, 6 hours treatment; read-out: pRpbl CTD S2 IC50
T1 sequence (Q9NYV4 whole entry, species assumed): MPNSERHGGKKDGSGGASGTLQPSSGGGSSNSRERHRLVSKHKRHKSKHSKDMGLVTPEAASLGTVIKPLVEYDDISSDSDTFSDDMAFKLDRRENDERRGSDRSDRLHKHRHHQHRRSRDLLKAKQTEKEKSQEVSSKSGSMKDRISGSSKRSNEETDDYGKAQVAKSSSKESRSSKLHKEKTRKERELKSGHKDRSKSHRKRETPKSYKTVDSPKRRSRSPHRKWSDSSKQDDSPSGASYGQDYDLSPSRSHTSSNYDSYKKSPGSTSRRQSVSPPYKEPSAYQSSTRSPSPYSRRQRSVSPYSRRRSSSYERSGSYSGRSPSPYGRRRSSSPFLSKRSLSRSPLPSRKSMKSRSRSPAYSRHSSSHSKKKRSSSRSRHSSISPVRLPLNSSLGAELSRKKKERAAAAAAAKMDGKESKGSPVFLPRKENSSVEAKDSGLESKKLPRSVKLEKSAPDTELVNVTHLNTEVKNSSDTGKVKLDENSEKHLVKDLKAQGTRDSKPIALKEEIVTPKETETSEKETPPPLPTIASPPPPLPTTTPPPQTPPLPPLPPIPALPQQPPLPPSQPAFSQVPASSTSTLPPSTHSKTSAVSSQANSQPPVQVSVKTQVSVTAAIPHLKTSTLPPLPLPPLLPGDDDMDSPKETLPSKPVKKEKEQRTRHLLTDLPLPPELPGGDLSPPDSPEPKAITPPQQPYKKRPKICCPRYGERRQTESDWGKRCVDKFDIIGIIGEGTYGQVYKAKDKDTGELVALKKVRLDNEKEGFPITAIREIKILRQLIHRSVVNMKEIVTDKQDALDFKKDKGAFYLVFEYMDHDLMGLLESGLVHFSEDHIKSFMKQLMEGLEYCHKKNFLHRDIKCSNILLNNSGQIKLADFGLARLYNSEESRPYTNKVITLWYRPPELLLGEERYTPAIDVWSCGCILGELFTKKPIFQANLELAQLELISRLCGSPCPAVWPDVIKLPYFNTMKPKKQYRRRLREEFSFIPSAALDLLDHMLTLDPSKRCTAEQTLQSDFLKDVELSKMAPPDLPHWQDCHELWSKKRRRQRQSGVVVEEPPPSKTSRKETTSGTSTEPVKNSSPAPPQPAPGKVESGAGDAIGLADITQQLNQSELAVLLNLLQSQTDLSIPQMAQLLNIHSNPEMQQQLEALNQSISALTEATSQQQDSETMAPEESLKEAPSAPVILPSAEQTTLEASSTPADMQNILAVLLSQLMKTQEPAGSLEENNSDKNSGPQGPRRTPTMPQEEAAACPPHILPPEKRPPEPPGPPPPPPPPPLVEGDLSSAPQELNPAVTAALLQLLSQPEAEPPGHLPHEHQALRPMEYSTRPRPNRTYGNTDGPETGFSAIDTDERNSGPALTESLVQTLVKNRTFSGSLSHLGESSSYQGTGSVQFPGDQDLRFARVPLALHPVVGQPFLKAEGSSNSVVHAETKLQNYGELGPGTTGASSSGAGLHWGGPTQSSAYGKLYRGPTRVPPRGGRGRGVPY
T1 sequence (O75909 whole entry partner, species assumed): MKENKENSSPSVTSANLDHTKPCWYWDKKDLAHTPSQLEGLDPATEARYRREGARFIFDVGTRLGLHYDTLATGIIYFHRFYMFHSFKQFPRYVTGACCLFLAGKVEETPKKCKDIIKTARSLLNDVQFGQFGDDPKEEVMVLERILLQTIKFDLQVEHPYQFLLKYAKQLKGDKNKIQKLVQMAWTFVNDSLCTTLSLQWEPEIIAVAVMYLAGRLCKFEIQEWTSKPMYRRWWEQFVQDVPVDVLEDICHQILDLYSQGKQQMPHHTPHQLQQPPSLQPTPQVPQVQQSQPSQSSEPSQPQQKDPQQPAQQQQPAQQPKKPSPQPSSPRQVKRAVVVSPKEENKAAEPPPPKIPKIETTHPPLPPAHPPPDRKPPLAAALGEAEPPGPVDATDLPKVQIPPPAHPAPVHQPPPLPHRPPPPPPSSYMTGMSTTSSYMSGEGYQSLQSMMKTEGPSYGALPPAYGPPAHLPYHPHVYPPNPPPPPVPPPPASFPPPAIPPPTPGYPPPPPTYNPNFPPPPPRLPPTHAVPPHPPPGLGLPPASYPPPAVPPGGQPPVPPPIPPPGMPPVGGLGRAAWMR
Outline: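 MDA-MB-231 cells in L-15 with 10 % FBS were treated with compound at 9 concentrations for 6 h at 37 °C, 0 % CO2. In-Cell Western read phospho-Ser2 and total RNA polymerase II CTD on a Li-COR Odyssey; IC50 from 4-parameter dose-response fit.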

CDK12 [3] = target: T1, CDK12; experiment: CDK12 kinase inhibitory activity assay (33P-ATP filter binding); assay type: biochemical; conditions: kinase reaction 120 minutes, 33P-gamma-ATP; read-out: CDK12 IC50
Outline: (§1)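 Compound in 9 concentrations pre-incubated 20 min with kinase and substrate, then ^33P-γ-ATP added and reacted 120 min at room temperature. Phosphorylated substrate captured on filter, washed with 0.75 % phosphoric acid and counted; activity as % of DMSO control, IC50 fitted.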

CDK13 = CDK13 (Homo sapiens, UniProt Q14004); experiment: CDK13 kinase inhibitory activity assay (33P-ATP filter binding); assay type: biochemical
CDK13, sequence (Q14004 whole entry, species assumed): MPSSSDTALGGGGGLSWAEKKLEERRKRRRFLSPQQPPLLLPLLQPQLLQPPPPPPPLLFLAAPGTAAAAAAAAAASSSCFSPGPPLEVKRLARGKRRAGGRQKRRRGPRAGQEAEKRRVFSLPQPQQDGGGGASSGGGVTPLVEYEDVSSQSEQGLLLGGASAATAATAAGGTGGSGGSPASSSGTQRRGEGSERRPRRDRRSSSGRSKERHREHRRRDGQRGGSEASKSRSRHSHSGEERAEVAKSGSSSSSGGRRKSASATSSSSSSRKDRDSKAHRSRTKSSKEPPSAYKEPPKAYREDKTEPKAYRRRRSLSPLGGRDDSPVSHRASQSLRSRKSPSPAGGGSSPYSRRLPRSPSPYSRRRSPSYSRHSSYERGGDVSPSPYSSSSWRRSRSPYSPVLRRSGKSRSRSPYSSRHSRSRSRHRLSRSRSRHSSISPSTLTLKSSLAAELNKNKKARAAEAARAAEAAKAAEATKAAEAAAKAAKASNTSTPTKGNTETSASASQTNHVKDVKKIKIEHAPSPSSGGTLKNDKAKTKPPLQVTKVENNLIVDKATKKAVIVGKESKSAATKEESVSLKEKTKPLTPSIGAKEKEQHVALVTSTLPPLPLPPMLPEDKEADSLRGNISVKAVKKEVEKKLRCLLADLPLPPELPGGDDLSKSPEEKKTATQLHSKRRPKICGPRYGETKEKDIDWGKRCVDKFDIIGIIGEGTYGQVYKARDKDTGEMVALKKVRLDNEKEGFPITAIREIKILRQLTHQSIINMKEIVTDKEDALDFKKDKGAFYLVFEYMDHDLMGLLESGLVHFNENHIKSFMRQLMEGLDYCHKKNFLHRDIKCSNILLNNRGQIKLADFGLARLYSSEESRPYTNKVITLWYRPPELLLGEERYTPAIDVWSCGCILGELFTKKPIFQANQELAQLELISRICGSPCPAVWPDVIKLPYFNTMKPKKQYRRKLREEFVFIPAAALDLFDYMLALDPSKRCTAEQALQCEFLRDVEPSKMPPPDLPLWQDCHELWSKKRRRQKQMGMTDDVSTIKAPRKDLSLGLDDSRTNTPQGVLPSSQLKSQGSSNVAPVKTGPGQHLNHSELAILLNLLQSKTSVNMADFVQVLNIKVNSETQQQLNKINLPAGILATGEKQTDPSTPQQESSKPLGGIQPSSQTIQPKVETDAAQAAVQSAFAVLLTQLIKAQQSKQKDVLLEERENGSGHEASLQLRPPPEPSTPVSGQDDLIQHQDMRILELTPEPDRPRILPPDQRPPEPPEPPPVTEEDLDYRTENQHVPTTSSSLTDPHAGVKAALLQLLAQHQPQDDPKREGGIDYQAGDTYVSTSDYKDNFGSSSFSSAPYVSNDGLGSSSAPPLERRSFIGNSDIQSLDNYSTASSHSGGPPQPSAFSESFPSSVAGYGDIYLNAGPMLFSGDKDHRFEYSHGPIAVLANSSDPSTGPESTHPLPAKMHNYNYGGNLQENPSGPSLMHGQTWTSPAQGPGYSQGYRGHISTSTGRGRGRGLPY
CDK13, sequence (O75909 whole entry partner, species assumed): as the sequence (O75909 whole entry partner, species assumed) above
Outline: as §1

[4] = kinase reaction 120 minutes, 33P-gamma-ATP, read-out: CDK13 IC50

IC50 [1] [nM] | IC50 (CDK12 [2]) [nM] | IC50 (CDK12 [3]) [nM] | IC50 (CDK13; [4]) [nM] | IC50 (CDK13) [nM] | SMILES
≤ 50 | < 300 | < 100 | < 100 | – | O=C(CO)N1CCN(c2cc(NCc3nc4cc(Cl)c(Cl)cc4[nH]3)c3ncc(C(F)(F)F)n3n2)CC1 [Example 102, 1-(4-(8-(((5,6-dichloro-1H-benzo[d]imidazol-2-yl)methyl)amino)-3-(trifluoromethyl)imidazo[1,2-b]pyridazin-6-yl)piperazin-1-yl)-2-hydroxyethan-1-one]
≤ 50 | < 300 | < 100 | < 100 | – | C[C@@H]1CN(c2cc(NCc3nc4cc(F)c(F)cc4[nH]3)c3ncc(C(F)(F)F)n3n2)C[C@H](C)N1 [Example 112, N-((5,6-difluoro-1H-benzo[d]imidazol-2-yl)methyl)-6-((3S, 5R)-3,5-dimethylpiperazin-1-yl)-3-(trifluoromethyl)imidazo[1,2-b]pyridazin-8-amine]
≤ 50 | < 300 | < 100 | < 100 | – | Nc1ncc(-c2cc(NCc3nc4cc(F)c(F)cc4[nH]3)c3ncc(C(F)(F)F)n3n2)cn1 [Example 113, 6-(2-aminopyrimidin-5-yl)-N-((5,6-difluoro-1H-benzo[d]imidazol-2-yl)methyl)-3-(trifluoromethyl)imidazo[1,2-b]pyridazin-8-amine]

The remaining lines, values behind:

SMILES | IC50 [1] [nM] | IC50 (CDK12 [2]) [nM] | IC50 (CDK12 [3]) [nM] | IC50 (CDK13; [4]) [nM] | IC50 (CDK13) [nM]
OC1CC2CCC(C1)N2c1cc(NCc2nc3cc(Cl)c(Cl)cc3[nH]2)c2ncc(C(F)(F)F)n2n1 (stereo not drawn) [Example 101, 8-(8-(((5,6-dichloro-1H-benzo[d]imidazol-2-yl)methyl)amino)-3-(trifluoromethyl)imidazo[1,2-b]pyridazin-6-yl)-8-azabicyclo[3.2.1]octan-3-ol] | ≤ 50 | < 300 | 100 to 500 | < 100 | –
O=C(CO)NC1CN(c2cc(NCc3nc4cc(Cl)c(Cl)cc4[nH]3)c3ncc(C(F)(F)F)n3n2)C1 [Example 103, N-(1-(8-(((5,6-dichloro-1H-benzo[d]imidazol-2-yl)methyl)amino)-3-(trifluoromethyl)imidazo[1,2-b]pyridazin-6-yl)azetidin-3-yl)-2-hydroxyacetamide] | 50 to 500 | 300 to 3000 | < 100 | < 100 | –
Fc1cc2nc(CNc3cc(N4CCNCC4)nn4c(C(F)(F)F)cnc34)[nH]c2cc1F [Example 109] | ≤ 50 | < 300 | < 100 | < 100 | –
CN1CCN(c2cc(NCc3nc4cc(F)c(F)cc4[nH]3)c3ncc(C(F)(F)F)n3n2)CC1 [Example 110, N-((5,6-difluoro-1H-benzo[d]imidazol-2-yl)methyl)-6-(4-methylpiperazin-1-yl)-3-(trifluoromethyl)imidazo[1,2-b]pyridazin-8-amine] | ≤ 50 | < 300 | < 100 | < 100 | –
NC1CCN(c2cc(NCc3nc4cc(F)c(F)cc4[nH]3)c3ncc(C(F)(F)F)n3n2)CC1 [Example 111, 6-(4-aminopiperidin-1-yl)-N-((5,6-difluoro-1H-benzo[d]imidazol-2-yl)methyl)-3-(trifluoromethyl)imidazo[1,2-b]pyridazin-8-amine] | ≤ 50 | < 300 | < 100 | < 100 | –
O=C(CO)C1CCN(c2cc(NCc3nc4cc(Cl)c(Cl)cc4[nH]3)c3ncc(C(F)(F)F)n3n2)CC1 [Example 114, 1-(1-(8-(((5,6-dichloro-1H-benzo[d]imidazol-2-yl)methyl)amino)-3-(trifluoromethyl)imidazo[1,2-b]pyridazin-6-yl)piperidin-4-yl)-2-hydroxyethan-1-one] | ≤ 50 | < 300 | < 100 | – | < 100
